Laboratory results published in ChEMBL document CHEMBL1140954, “Syntheses and cytotoxicities of the analogues of the taxoid brevifoliol” (Eur J Med Chem, 2008).
≈ marks a conversion by molar mass, not a printed value.

Tests used:
[1] = (§1) Cytotoxicity against human Caco-2 cells after 48 hrs by MTT assay; assay type: cell-based; conditions: human, Caco-2 cells
Caco-2 = assay: as §1; assay type: cell-based; conditions: Homo sapiens, Caco-2, 48 h
HepG2 = assay: Cytotoxicity against human HepG2 cells after 48 hrs by MTT assay; assay type: functional, cell-based; conditions: HepG2, 48 h
MCF7 = assay: Cytotoxicity against human MCF7 cells after 48 hrs by MTT assay; assay type: functional, cell-based; conditions: MCF7, 48 h
KB = assay: Cytotoxicity against human KB cells after 48 hrs by MTT assay; assay type: functional, cell-based

C=C1[C@@H](OC(=O)[C@H](O)[C@@H](NC(=O)OC(C)(C)C)c2ccccc2)C[C@H](OC(C)=O)[C@]2(C)[C@@H]1C[C@]1(C(C)(C)O)CC(=O)C(C)=C1[C@@H](OC(=O)c1ccccc1)[C@@H]2OC(C)=O
IC90 at 48 h [1]: 100 µg/mL (≈ 122 µM)
IC50 (Caco-2): 100 µg/mL (≈ 122 µM)
IC50 (HepG2): 0.065 µg/mL (≈ 0.0795 µM)
IC90 (HepG2): 5.33 µg/mL (≈ 6.52 µM)
IC50 (MCF7): 8.5 µg/mL (≈ 10.4 µM)
IC90 (MCF7): 43.3 µg/mL (≈ 53 µM)
IC50 (KB): 100 µg/mL (≈ 122 µM)
IC90 (KB): 100 µg/mL (≈ 122 µM)

C=C1[C@@H](OC(=O)[C@H](O)[C@@H](NC(=O)OC(C)(C)C)c2ccccc2)C[C@H](OC(C)=O)[C@@]2(C)[C@@H](OC(C)=O)[C@H](OC(=O)c3ccccc3)C3=C(C)C(=O)C[C@@]3(C(C)(C)O)[C@@H](OC(C)=O)[C@H]12
IC90 at 48 h [1]: 100 µg/mL (≈ 114 µM)
IC50 (Caco-2): 100 µg/mL (≈ 114 µM)
IC50 (HepG2): 100 µg/mL (≈ 114 µM)
IC90 (HepG2): 100 µg/mL (≈ 114 µM)
IC50 (MCF7): 100 µg/mL (≈ 114 µM)
IC90 (MCF7): 100 µg/mL (≈ 114 µM)
IC50 (KB): 0.105 µg/mL (≈ 0.12 µM)
IC90 (KB): 5.33 µg/mL (≈ 6.08 µM)

C=C1[C@H]2C[C@]3(C(C)(C)O)CC(=O)C(C)=C3[C@@H](OC(=O)c3ccccc3)[C@H](OC(C)=O)[C@]2(C)[C@@H](OC(C)=O)C[C@@H]1O
IC90 at 48 h [1]: 21 µg/mL (≈ 37.9 µM)
IC50 (Caco-2): 0.008 µg/mL (≈ 0.0144 µM)
IC50 (HepG2): 100 µg/mL (≈ 180 µM)
IC90 (HepG2): 100 µg/mL (≈ 180 µM)
IC50 (MCF7): 5.33 µg/mL (≈ 9.61 µM)
IC90 (MCF7): 22.6 µg/mL (≈ 40.7 µM)
IC50 (KB): 0.0078 µg/mL (≈ 0.0141 µM)
IC90 (KB): 1.13 µg/mL (≈ 2.04 µM)

C=C1[C@@H](O)C[C@H](OC(C)=O)[C@@]2(C)[C@@H](OC(C)=O)[C@H](OC(=O)c3ccccc3)C3=C(C)C(=O)C[C@@]3(C(C)(C)O)[C@@H](OC(C)=O)[C@H]12 [13-OXO-TAXCHININ A]
IC90 at 48 h [1]: 100 µg/mL (≈ 163 µM)
IC50 (Caco-2): 100 µg/mL (≈ 163 µM)
IC50 (HepG2): 96.6 µg/mL (≈ 158 µM)
IC90 (HepG2): 100 µg/mL (≈ 163 µM)
IC50 (MCF7): 100 µg/mL (≈ 163 µM)
IC90 (MCF7): 100 µg/mL (≈ 163 µM)
IC50 (KB): 100 µg/mL (≈ 163 µM)
IC90 (KB): 100 µg/mL (≈ 163 µM)

CC(=O)O[C@H]1C(=O)[C@@]2(C)[C@H]([C@H](OC(=O)c3ccccc3)[C@]3(O)C[C@H](OC(=O)[C@H](O)[C@@H](NC(=O)c4ccccc4)c4ccccc4)C(C)=C1C3(C)C)[C@]1(OC(C)=O)CO[C@@H]1C[C@@H]2O [PACLITAXEL]
IC90 at 48 h [1]: 0.065 µg/mL (≈ 0.0761 µM)
IC90 (HepG2): 1.13 µg/mL (≈ 1.32 µM)
IC90 (MCF7): 0.86 µg/mL (≈ 1.01 µM)
IC90 (KB): 0.048 µg/mL (≈ 0.0562 µM)

C=C1[C@H]2C[C@]3(C(C)(C)O)C[C@H](OC(=O)[C@H](O)[C@@H](NC(=O)OC(C)(C)C)c4ccccc4)C(C)=C3[C@@H](OC(=O)c3ccccc3)[C@H](OC(C)=O)[C@]2(C)[C@@H](OC(C)=O)C[C@@H]1O
IC90 at 48 h [1]: 100 µg/mL (≈ 122 µM)
IC50 (Caco-2): 100 µg/mL (≈ 122 µM)
IC50 (HepG2): 78.3 µg/mL (≈ 95.5 µM)
IC90 (HepG2): 91.6 µg/mL (≈ 112 µM)
IC50 (MCF7): 48.3 µg/mL (≈ 58.9 µM)
IC90 (MCF7): 68.3 µg/mL (≈ 83.3 µM)
IC50 (KB): 100 µg/mL (≈ 122 µM)
IC90 (KB): 100 µg/mL (≈ 122 µM)

C=C1[C@@H](O)C[C@H](OC(C)=O)[C@@]2(C)[C@@H](OC(C)=O)[C@H](OC(=O)c3ccccc3)C3=C(C)[C@@H](O)C[C@@]3(C(C)(C)O)[C@@H](OC(C)=O)[C@H]12 [TAXCHININ A]
IC90 at 48 h [1]: 21 µg/mL (≈ 34.2 µM)
IC50 (Caco-2): 6.16 µg/mL (≈ 10 µM)
IC50 (HepG2): 96.6 µg/mL (≈ 157 µM)
IC90 (HepG2): 100 µg/mL (≈ 163 µM)
IC50 (MCF7): 58.3 µg/mL (≈ 94.8 µM)
IC90 (MCF7): 91.6 µg/mL (≈ 149 µM)
IC50 (KB): 0.316 µg/mL (≈ 0.514 µM)
IC90 (KB): 7.5 µg/mL (≈ 12.2 µM)

C=C1[C@@H](OC(=O)[C@H](O)[C@@H](NC(=O)OC(C)(C)C)c2ccccc2)C[C@H](OC(C)=O)[C@]2(C)[C@@H]1C[C@]1(C(C)(C)O)C[C@H](OC(=O)C(O)C(NC(=O)OC(C)(C)C)c3ccccc3)C(C)=C1[C@@H](OC(=O)c1ccccc1)[C@@H]2OC(C)=O (stereo partly specified)
IC90 at 48 h [1]: 100 µg/mL (≈ 92.3 µM)
IC50 (Caco-2): 100 µg/mL (≈ 92.3 µM)
IC50 (HepG2): 96.6 µg/mL (≈ 89.2 µM)
IC90 (HepG2): 100 µg/mL (≈ 92.3 µM)
IC50 (MCF7): 100 µg/mL (≈ 92.3 µM)
IC90 (MCF7): 100 µg/mL (≈ 92.3 µM)
IC50 (KB): 2.73 µg/mL (≈ 2.52 µM)
IC90 (KB): 33.3 µg/mL (≈ 30.7 µM)

C=C1[C@H]2C[C@]3(C(C)(C)O)C[C@H](O)C(C)=C3[C@@H](OC(=O)c3ccccc3)[C@H](OC(C)=O)[C@]2(C)[C@@H](OC(C)=O)C[C@@H]1O [BREVIFOLIOL]
IC90 at 48 h [1]: 1.32 µg/mL (≈ 2.37 µM)
IC50 (Caco-2): 0.0025 µg/mL (≈ 0.00449 µM)
IC50 (HepG2): 0.055 µg/mL (≈ 0.0988 µM)
IC90 (HepG2): 1.13 µg/mL (≈ 2.03 µM)
IC50 (MCF7): 0.86 µg/mL (≈ 1.54 µM)
IC90 (MCF7): 6.16 µg/mL (≈ 11.1 µM)
IC50 (KB): 0.0031 µg/mL (≈ 0.00557 µM)
IC90 (KB): 0.6 µg/mL (≈ 1.08 µM)

C=C1[C@@H](OC(=O)[C@H](O)[C@@H](NC(=O)OC(C)(C)C)c2ccccc2)C[C@H](OC(C)=O)[C@]2(C)[C@@H]1C[C@]1(C(C)(C)O)C[C@H](O)C(C)=C1[C@@H](OC(=O)c1ccccc1)[C@@H]2OC(C)=O
IC90 at 48 h [1]: 100 µg/mL (≈ 122 µM)
IC50 (Caco-2): 100 µg/mL (≈ 122 µM)
IC50 (HepG2): 100 µg/mL (≈ 122 µM)
IC90 (HepG2): 100 µg/mL (≈ 122 µM)
IC50 (MCF7): 33.3 µg/mL (≈ 40.6 µM)
IC90 (MCF7): 55 µg/mL (≈ 67.1 µM)
IC50 (KB): 100 µg/mL (≈ 122 µM)
IC90 (KB): 100 µg/mL (≈ 122 µM)
